Measurements as given in patent US9994577B2, “Azepanyl-derivatives and pharmaceutical compositions comprising the same with antiparasitic activity” (Merck Patent GmbH, priority 2014, dated 2018).

What follows are molecules tested on P. falciparum NF54 (assay: P. falciparum growth assay ([3H]hypoxanthine incorporation)). Conditions: Plasmodium falciparum, [3H]-hypoxanthine incorporation at 72 h, read-out: EC50 (nM), concentration that inhibits by 50% the incorporation of [3H]-hypoxanthine.
Assay type: cell-based
Protocol: P. falciparum strain NF54 was obtained from the Research and Reference Reagent Resource Center (MR4) (Manassas, Va.). The two strains were maintained in vitro by a modification of the method of Trager and Jensen. Cultures were maintained in A positive (A+) human erythrocytes suspended at 5% hematocrit in complete medium. 5 g albumax II (Gibco-Invitrogen, Cat No#11021037), 2.5 mg gentamicin (Sigma Aldrich), 25 mM HEPES (Invitrogen), 5 mg hypoxanthine (Sigma), and 1 L of RPMI 1640 (Invitrogen, Cat No#11875085). Cultures were grown in 100 mm petri-dishes (BD Falcon) at a volume of 15 mL and were kept in a standard gas environment of 4% CO2 and 3% O2 at temperature 37° C. in a tri-gas incubator (Cat#3131, Thermo Scientific Forma Series II Water Jacketed). Parasite growth and morphology were observed daily using thin smears at 100× (oil immersion) magnification following staining with Geimsa stain. […]
Parasite growth was detected in assay by the traditional [3H]hypoxanthine incorporation assay as previously described by Desjardins and colleagues (Antimicrob. Agents Chemother., 16(6), 710, 1979). To perform the [3H]hypoxanthine incorporation assay, the new antimalarial agents were serially diluted 1:1 into hypoxanthine-free complete medium to a final volume of 100 μL (final antimalarial agent concentration range, 10,000 nM to 4.8 nM may change in special case) in 96 well sterile cell culture plates. […] All cultures used in the study are albumax II adopted. The microtiter plates were incubated in chamber in a standard gas environment at 37° C. for 72 h. After 48 h of incubation and prior to addition of 50 μL (0.5 μCi/well) 3H-Hypoxanthine (specific activity, 20 Ci/mmol, Conc. 1.0 mCi/ml; American Radiolabeled Chemicals, Inc., St. Louis, Mo.), culture growth was assessed by making the smears that ensures the culture has grown and assay plate is further incubated for 24 h.
Following the incubation period, the plates were harvested with a FilterMate cell harvester (Perkin Elmer) onto unifilter-96 GF/B plates, washed with distilled water to remove excess radiochemical and plates were kept for drying 37° C. overnight or 60° C. for 1 h. 50 μL of Microscint scintillation cocktail (Microscint-High Efficiency LSC-Cocktail; Perkin Elmer) added in the unifilter-96 GF/B plates and kept for 15-20 min. The plates were counted in a Top Count NXT microplate scintillation and luminescence counter (Perkin Elmer). The mean values for [3H]hypoxanthine incorporation in parasitized control and non-parasitized control erythrocytes were calculated.

Going from `CS(=O)(=O)c1c(C(F)(F)F)ccc2c1c1cc(C(F)(F)F)ccc1n2C1CCCNC[C@@H]1O` (mixture of isomers) [6 (mixture of isomers), (3R,4R)-4-[4-methylsulfonyl-3,6-bis(trifluoromethyl)carbazol-9-yl]azepan-3-ol] to `O[C@@H]1CNCCC[C@H]1n1c2ccc(C(F)(F)F)cc2c2cc(C(F)(F)F)ccc21` [Compound 3, (3R,4R)-4-[3,6-bis(trifluoromethyl)-9H-carbazol-9-yl]azepan-3-ol], the EC50 falls from 45.9 nM to 2.55 nM (18-fold).

Compared with `COc1cc(Cl)cc2c3cc(Cl)ccc3n([C@H]3CCCNC[C@@H]3O)c12` (racemic) [8 (racemic), (3S,4S)-4-(3,6-dichloro-1-methoxy-9H-carbazol-9-yl)azepan-3-ol], `COc1cc2c(cc1Cl)c1cc(Cl)ccc1n2[C@H]1CCCNC[C@@H]1O` (racemic) [Compound 9, (3R,4R)-4-(3,6-dichloro-2-methoxy-9H-carbazol-9-yl)azepan-3-ol] is 1.8-fold lower in EC50: 32.9 nM for the first, 18 nM for the second.

First: O[C@H]1CNCCCC1N1c2ccc(Cl)cc2Oc2cc(Cl)ccc21 (mixture of isomers) [10 (mixture of isomers), (3R,4R)-4-(3,7-dichloro-10H-phenoxazin-10-yl)azepan-3-ol]
Second: O[C@@H]1CNCCC[C@H]1n1c2ccc(Cl)cc2c2cc(Cl)ccc21 (stereo in doubt) [Compound 2, (3R,4R)-4-(3,6-dichloro-9H-carbazol-9-yl)azepan-3-ol]
The EC50 of the first is 1.7-fold lower: 21 nM for the first, 36.4 nM for the second. The first is the more potent here.

`O[C@H]1CNCCC[C@@H]1n1c2ccc(C(F)(F)F)cc2c2cc(C(F)(F)F)cnc21` (racemic) [Compound 14 (i), (3R,4R)-4-[3,6-bis(trifluoromethyl)pyrido[2,3-b]indol-9-yl]azepan-3-ol] and `O[C@@H]1CNCCC[C@H]1n1c2ccc(C(F)(F)F)nc2c2cc(C(F)(F)F)cnc21` [Compound 23, (3R,4R)-4-(2,8-bis(trifluoromethyl)-5H-pyrrolo[2,3-b:4,5-b′]dipyridin-5-yl)azepan-3-ol] are within 1.5-fold of each other in EC50: 16.6 nM for the first, 11.2 nM for the second.

Compared with `COc1cc2c(cc1C(F)(F)F)c1nc(C(F)(F)F)ccc1n2[C@@H]1CCCNC[C@H]1O` [Compound 17, (3R,4R)-4-(7-methoxy-2,8-bis(trifluoromethyl)-5H-pyrido[3,2-b]indol-5-yl)azepan-3-ol], `COc1cc2c(cc1C(F)(F)F)c1nc(C(F)(F)F)ccc1n2[C@H]1CCCNC[C@@H]1O` [Compound 18, (3S,4S)-4-(7-methoxy-2,8-bis(trifluoromethyl)-5H-pyrido[3,2-b]indol-5-yl)azepan-3-ol] is 2.4-fold lower in EC50: 12.8 nM for the first, 5.4 nM for the second.

Compared with `COc1cc(Cl)cc2c3nc(C(F)(F)F)ccc3n([C@@H]3CCCNC[C@H]3O)c12` [Compound 19, (3R,4R)-4-(8-chloro-6-methoxy-2-(trifluoromethyl)-5H-pyrido[3,2-b]indol-5-yl)azepan-3-ol], `COc1cc(Cl)cc2c3nc(C(F)(F)F)ccc3n([C@H]3CCCNC[C@@H]3O)c12` [Compound 20, (3S,4S)-4-(8-chloro-6-methoxy-2-(trifluoromethyl)-5H-pyrido[3,2-b]indol-5-yl)azepan-3-ol] is 1.8-fold lower in EC50: 24 nM for the first, 13.1 nM for the second.

`O[C@@H]1CNCCC[C@H]1n1c2ccc(Cl)cc2c2nc(C(F)(F)F)ncc21` [Compound 21, (3R,4R)-4-(8-chloro-2-(trifluoromethyl)-5H-pyrimido[5,4-b]indol-5-yl)azepan-3-ol] and `O[C@H]1CNCCC[C@@H]1n1c2ccc(Cl)cc2c2nc(C(F)(F)F)ncc21` [Compound 22, (3S,4S)-4-(8-chloro-2-(trifluoromethyl)-5H-pyrimido[5,4-b]indol-5-yl)azepan-3-ol] are within 1.5-fold of each other in EC50: 41.7 nM for the first, 46.1 nM for the second.

Going from `O[C@H]1CNCCC[C@@H]1n1c2ccc(C(F)(F)F)nc2c2cc(C(F)(F)F)cnc21` [Compound 24, (3S,4S)-4-(2,8-bis(trifluoromethyl)-5H-pyrrolo[2,3-b:4,5-b′]dipyridin-5-yl)azepan-3-ol] to `O=C1CC[C@@H](n2c3ccc(Cl)cc3c3cc(Cl)ccc32)[C@H](O)CN1` [Compound 27, (5R,6R)-5-(3,6-dichloro-9H-carbazol-9-yl)-6-hydroxyazepan-2-one], the EC50 rises from 2.3 nM to 28.2 nM (12-fold).

These molecules were tested on P falciparum PF3D/0087/N9 (assay: In vivo efficacy in a murine model of P. falciparum-malaria (4-day test)). Conditions: NODscidIL2Rynull mice engrafted with human erythrocytes.
Set-up: species or system Plasmodium falciparum
From the text: In vivo efficacy against P falciparum PF3D/0087/N9 for the compounds no. 2 and 3 as described in Examples 16 and 17.
The in vivo activity in a murine model of P. falciparum-malaria was adapted from the protocol as provided by Angulo-Barturen I, Jimènez-Diaz M B, Mulet T, Rullas J, Herreros E, et al. (2008) PLoS ONE 3(5): e2252. doi:10.1371/journal.pone.0002252.
This study measures the therapeutic efficacy of compounds no. 2 and 3 against Plasmodium falciparum growing in peripheral blood of NODscidIL2Rynull mice engrafted with human erythrocytes. The antimalarial efficacy of compounds no. 2 and 3 were assessed using a “4-day test”.
The parameters of efficacy estimated in the study are a) the dose of compounds no. 2 and 3 in mg·kg^−1 that reduces parasitemia at day 7 after infection by 90% with respect to vehicle-treated mice (parameter denoted as ED90)

`O[C@@H]1CNCCC[C@H]1n1c2ccc(Cl)cc2c2cc(Cl)ccc21` (stereo in doubt) [Compound 2, (3R,4R)-4-(3,6-dichloro-9H-carbazol-9-yl)azepan-3-ol] was tested, and the “ED90, dose that reduces parasitemia at day 7 after infection by 90% with respect to vehicle-treated mice” value was under 10 mg/kg.
With `O[C@@H]1CNCCC[C@H]1n1c2ccc(C(F)(F)F)cc2c2cc(C(F)(F)F)ccc21` [Compound 3, (3R,4R)-4-[3,6-bis(trifluoromethyl)-9H-carbazol-9-yl]azepan-3-ol] the “ED90, dose that reduces parasitemia at day 7 after infection by 90% with respect to vehicle-treated mice” value was under 3 mg/kg.
